Molecular target: HT-29 cell line (Homo sapiens)
Test: In vitro antiproliferative activity of compound against HT-29 (human colon caner ) cell line was determined by SRB assay

Row | IC50 [µM] | SMILES
1 | 33.1 | O=Cc1cccc(C(=O)Sc2ccc(Cl)c(Cl)c2)n1 [6-Formyl-pyridine-2-carbothioic acid S-(3,4-dichloro-phenyl) ester]
2 | 113 | N#Cc1ccc(C=O)nc1SCc1c(Cl)cccc1Cl [2-(2,6-Dichloro-benzylsulfanyl)-6-formyl-nicotinonitrile]

Reference: BindingDB's records for doi:10.1016/s0960-894x(02)01041-7 (Seoul National University, 2003)
